Results reported in US20060134197A1, “Method of reducing unpleasant taste and/or unpleasant odor” (priority 2002, published 2006).

Columns and labels:
[1] = Inhibiting the production of lower aldehydes and 2,3-butandion from heated cacao powder; details: 1 g cacao powder in 4 ml of 2.5% saccharide solution; microwave, then 100° C. five minutes
Description: “Stuffy smell”, meaning a kind of foreign smell generated from cocoa, chocolate, and compositions thereof during their processes, is known to deteriorate their flavor. 2,3-Butandion and lower aldehydes are known as a causative substance of foreign smell. On the other hand, […], classified in lower aldehydes, is known as one of the aromatic ingredients of chocolates. To confirm the effect of saccharide derivatives of α,α-trehalose on inhibiting the production of such compounds, the following experiment was carried out. Four milliliters of 2.5%, on a dry solid basis, saccharide solution containing either of sucrose, “TREHA®” (an α,α-trehalose commercialized by Hayashibara Biochemical Laboratories, Inc., Okayama, Japan), a commercialized enzyme-treated starch syrup and a syrupy saccharide mixture containing saccharide derivatives of α,α-trehalose prepared in Example 1 (on a dry solid basis about 53% of saccharide derivatives of α,α-trehalose) was placed in a 20-ml vial and admixed with 1 g of cacao powder. The resulting vial was covered with a plastic warp and heated by a microwave oven (500 W) for five seconds. As a control, 4 ml of distilled water and 1 g of cacao powder were placed in the vial and treated similarly as in the saccharide solutions. These vials were sealed with a butyl gum cap over the plastic wrap and heated at 100° C. in a heat block for five minutes. Two milliliters of the resulting headspace gas was subjected to gas chromatography to measure the contents of lower aldehydes and 2,3-butandion according to the method in Experiment 5-4. The amount of total aldehydes was calculated by totalizing the measured amounts of three kinds of aldehydes and other aldehydes listed in Table 8.
The resulting value of the production of aldehydes or 2,3-butandion of each of the test samples was compared with the value of control defined as 100 to calculate the relative value of the production of them. And then, the relative rate of inhibiting the production of them was calculated by 100 minus the relative value.

[2] = Panel test of lowering iron taste and/or smell of aqueous bivalent iron ion solution; parameters: key to Effect on lowering iron taste and/or smell: “Not effective (symbol “−”)” meaning of that the test aqueous solution showed no difference in iron taste and/or smell from that the control aqueous solution; “Slightly effective (symbol “+”)”, the test aqueous solution showes weaker iron taste and/or smell than the control aqueous solution but the deference was not significant; “Effective (symbol “++”)”, the test aqueous solution showed a slight iron taste and/or smell but it was significantly weaker than that of the control aqueous solution; “Strongly effective (symbol “+++”)”, the test aqueous solution showed almost no iron taste and/or smell; details: for Effect on lowering iron taste and/or smell: 5 mg bivalent iron per 100 ml, 12 panels; for Concentration effective on lowering unpleasant taste and/or smell of aqueous iron ion solution: to the total weight of the aqueous solution, dry solid basis
Method: To confirm the effect of various saccharides on inhibiting taste and/or smell of bivalent iron ion, the following experiment was carried out. An aqueous solution containing bivalent iron ion was prepared by dissolving 0.05556 part by weight of ammonium ferric citrate (iron content of about 18%), and 0.1 part by weight of ascorbic acid in 100 parts by weight of deionized water. Test aqueous solutions containing 5 mg of bivalent iron per 100 ml of water and 0.5, 1.0, 1.5, 2.0 or 5.0% of saccharide selected from sucrose, maltose (hydrous crystalline maltose commercialized by Hayashibara Biochemical Laboratories, Inc., Okayama, Japan, purify 99.0% or more), α,α-trehalose (hydrous crystalline α,α-trehalose commercialized by Hayashibara Biochemical Laboratories, Inc., Okayama, Japan, purity 99.0% or more), α-glucosyl α,α-trehalose (hydrous crystalline α-glucosyl α,α-trehalose prepared in Experiment B-1 of Japanese Patent Publication (Kokai) No. 291,986/1995, purity 99.0% or more), and […] (powdery α-maltosyl α,α-trehalose prepared in Example 5 described following, purity 98.1%) were prepared by admixing the above aqueous solution containing bivalent iron with an equal volume of a pre-prepared aqueous solution containing any one of the above saccharides at a concentration of 1.0, 2.0, 3.0, 4.0 or 10.0%, on a dry solid basis. As a control, an aqueous solution was prepared by admixing the aqueous solution containing bivalent iron ion with an equal volume of warter instead of the aqueous saccharide solution.
The effect on lowering iron taste and/or smell, namely unpleasant taste and/or smell of iron ion existing in a test aqueous solution at a concentration of 5 mg per 100 ml was judged by a panel test using 12 panels. […] In the judgement for each test aqueous solution, ten or more of 12 panels answered the same judgement.

[3] = Inhibiting the production of hydrogen sulfide from heated minced mackerel; details: minced mackerel with 5% saccharide solution, headspace gas
Method: Five grams of minced mackerel, prepared by mincing commercialized mackerel without head part, internal organs and bone with a mincer to homogeneity, was placed in a 20-ml vial, and admixed with 5 ml of an aqueous solution containing on a dry solid basis 5% of “TREHA®”, a food grade hydrous α,α-trehalose commercialized by Hayashibara Biochemical laboratories, Inc., Okayama, Japan (purity 99.0% or more), sucrose (a commercialized granulated sugar), or a syrupy saccharide mixture containing saccharide derivatives of α,α-trehalose prepared in Example 1. The resulting vials were sealed with a butyl gum cap to prepare test samples. As a control, a vial containing 5 g of the minced mackerel and 5 ml of deionized water was sealed with a butyl gum cap for a control sample. […]
Similarly as in Experiment 4, the content of hydrogen sulfide was measured using 10 ml of a headspace gas by “GASTECH No. 4 LT”, a hydrogen sulfide detector commercialized by GL Science Corporation, under an aspiration time of one minute.
(§1) The values of the production of amines, hydrogen sulfide and aldehydes of each test sample were compared with the value of control defined as 100 to calculate the relative values thereof. And then, the relative rates of inhibiting the production of amines, hydrogen sulfide and aldehydes were respectively calculated by 100 minus each of the relative values.

[4] = Inhibiting the production of amines from heated minced mackerel (headspace GC); details: minced mackerel with 5% saccharide solution; for Relative rate of inhibiting the production of dimethylamine / Relative rate of inhibiting the production of trimethylamine: headspace gas; for Relative rate of inhibiting the production of total amine: trimethylamine plus dimethylamine
Method: Five grams of minced mackerel, prepared by mincing commercialized mackerel without head part, internal organs and bone with a mincer to homogeneity, was placed in a 20-ml vial, and admixed with 5 ml of an aqueous solution containing on a dry solid basis 5% of “TREHA®”, a food grade hydrous α,α-trehalose commercialized by Hayashibara Biochemical laboratories, Inc., Okayama, Japan (purity 99.0% or more), sucrose (a commercialized granulated sugar), or a syrupy saccharide mixture containing saccharide derivatives of α,α-trehalose prepared in Example 1. The resulting vials were sealed with a butyl gum cap to prepare test samples. As a control, a vial containing 5 g of the minced mackerel and 5 ml of deionized water was sealed with a butyl gum cap for a control sample. These samples were heated in boiled water for 15 minutes, cooled in running water, and heated at 80° C. for five minutes. The resulting headspace gas was taken from each of the vials and allowed to measure the contents of amines, hydrogen sulfide and aldehydes.
Measurement of the content of amines was carried out by subjecting 2 ml of the headspace gas to analysis by GC-14B gas chromatography, a hydrogen flame ionizing detector commercialized by Shimazu Co., Ltd., Kyoto, Japan, with flowing helium gas as a carrier gas at a flow rate of 1 ml/minute, and using DB-5 capillary column, 30 m in length and 0.25 mm in internal diameter (df=0.25 μm, sprit rate 1/30), commercialized by J & W Company, with an increasing column temperature from 40° C. to 250° C. at a rate of 5° C./minute. The amount of total amine was calculated by totalizing the amount of trimethylamine and dimethylamine.
as §1

SMILES: OC[C@H]1O[C@H](O[C@H]2O[C@H](CO)[C@@H](O)[C@H](O)[C@H]2O)[C@H](O)[C@@H](O)[C@@H]1O [α,α-Trehalose, α,α-trehalose]
- Relative rate of inhibiting the production of 2,3-butandion [1]: 100
- Relative rate of inhibiting the production of acetaldehyde [1]: 50
- Relative rate of inhibiting the production of isobutanal [1]: 58
- Relative rate of inhibiting the production of other aldehydes [1]: 0
- Relative rate of inhibiting the production of propanal [1]: 47
- Relative rate of inhibiting the production of total aldehydes [1]: 53
- Effect on lowering iron taste and/or smell ([2]; saccharide 0.5%): −
- Effect on lowering iron taste and/or smell ([2]; saccharide 1.0%): −
- Effect on lowering iron taste and/or smell ([2]; saccharide 1.5%): +
- Effect on lowering iron taste and/or smell ([2]; saccharide 2.0%): +
- Effect on lowering iron taste and/or smell ([2]; saccharide 5.0%): ++
- Concentration effective on lowering unpleasant taste and/or smell of aqueous iron ion solution [2]: ≥ 1.5%
- Relative rate of inhibiting the production of hydrogen sulfide [3]: 26
- Relative rate of inhibiting the production of dimethylamine [4]: 44
- Relative rate of inhibiting the production of trimethylamine [4]: 58
- Relative rate of inhibiting the production of total amine [4]: 52

SMILES: OC[C@H]1O[C@@](CO)(O[C@H]2O[C@H](CO)[C@@H](O)[C@H](O)[C@H]2O)[C@@H](O)[C@@H]1O [Sucrose, sucrose]
- Relative rate of inhibiting the production of 2,3-butandion [1]: 95
- Relative rate of inhibiting the production of acetaldehyde [1]: 44
- Relative rate of inhibiting the production of isobutanal [1]: 52
- Relative rate of inhibiting the production of other aldehydes [1]: 0
- Relative rate of inhibiting the production of propanal [1]: 43
- Relative rate of inhibiting the production of total aldehydes [1]: 48
- Effect on lowering iron taste and/or smell ([2]; saccharide 0.5%): −
- Effect on lowering iron taste and/or smell ([2]; saccharide 1.0%): −
- Effect on lowering iron taste and/or smell ([2]; saccharide 1.5%): −
- Effect on lowering iron taste and/or smell ([2]; saccharide 2.0%): −
- Effect on lowering iron taste and/or smell ([2]; saccharide 5.0%): −
- Concentration effective on lowering unpleasant taste and/or smell of aqueous iron ion solution [2]: not effective
- Relative rate of inhibiting the production of hydrogen sulfide [3]: 12
- Relative rate of inhibiting the production of dimethylamine [4]: −34
- Relative rate of inhibiting the production of trimethylamine [4]: 12
- Relative rate of inhibiting the production of total amine [4]: −8
